Measurements from paper PMC4476725 (PLoS Pathogens, 2015).
Where two headings read alike, the source gives them in different places.

Tests used:
[1] = in vitro; settings: human
[2] = tested on: Vesicular stomatitis virus; assay: microbe, parasite or virus in culture; format: cell-based; settings: A549, 48 h
[3] = tested on: A549
[4] = in vitro; settings: human; remark: listed apart in the source
[5] = tested on: RSV A2; assay: Three-dimensional lung model, primary human tracheal/bronchial epithelial cells infected with RSV A2; format: cell-based; settings: human respiratory syncytial virus, Epithelial cell
[6] = tested on: influenza strain A/WSN/33 (H1N1); assay: Influenza assay in A549 cells (neuraminidase readout); format: cell-based; settings: Influenza virus, 20h
[7] = tested on: HCV replicon; assay: microbe, parasite or virus in culture; format: cell-based; settings: Hepatitis C virus
[8] = tested on: RSV A and B clinical isolates; assay: microbe, parasite or virus in culture; format: cell-based; settings: human respiratory syncytial virus
[9] = tested on: RSV A2; assay: RSV inhibition by qRT-PCR in HEp-2 cells, RSV A2 strain; format: cell-based; settings: human respiratory syncytial virus
[10] = tested on: RSV replicon; assay: RSV subgenomic replicon assay (luciferase); format: cell-based, Respiratory syncytial virus; settings: human respiratory syncytial virus; RSV replicon
Protocol: The RSV subgenomic replicon (Apath, Brooklyn, NY, USA) was used as previously described. The HeLa-derived cells containing the stable RSV replicon were cultured in DMEM containing 4500 mg/L D-glucose, L-glutamine, and 110 mg/L sodium pyruvate. The medium was further supplemented with 10% (v/v) FBS (Mediatech), 1% (v/v) penicillin/streptomycin (Mediatech), and 10 μg/mL of Blasticidin (BSD) (Invivogen). Cells were maintained at 37°C in a humidified 5% CO2 atmosphere. On the first day, 5000 RSV replicon cells per well were plated in a 96-well plate. On the following day, compounds to be tested were solubilized in 100% DMSO to 100 × the desired final testing concentration. Cells were incubated with compounds for 7 days at 37°C in a 5% CO2 atmosphere before measurement of the luciferase readout. Cell viability (CC50) was measured with a CellTiter-Glo cell proliferation assay (Promega).

[11] = in vitro; settings: human; remark: listed apart in the source
[12] = tested on: RSV B1; assay: RSV inhibition by qRT-PCR in HEp-2 cells, RSV B1 strain; format: cell-based; settings: human respiratory syncytial virus, 120 h, 5 days, n = 3, read-out: EC50, inhibition of RNA replication of RSV B1
[13] = tested on: Parainfluenza virus type-3; assay: PIV-3 antiviral assay in A549 cells; format: cell-based, human PIV-3 C243 strain; settings: 168 h, 7 days, qRT-PCR
[14] = tested on: Rhinovirus 1b; assay: Human rhinovirus assay in HeLa-OHIO cells (CPE); format: cell-based; settings: Enterovirus
[15] = in vitro; settings: human; remark: listed apart in the source
[16] = target: QUAD-mutant RSV polymerase (Human respiratory syncytial virus A, UniProt P28887, A789V/I796V/L795I/M628L); format: cell-based
[17] = target: PIV-1 polymerase (Human respirovirus 1, UniProt Q8QT26); assay: biochemical; settings: Parainfluenza virus type-1 polymerase
[18] = target: IAV polymerase (Influenza A virus, UniProt P03431); assay: IAV polymerase gel-based assay; format: biochemical
[19] = target: human mitochondrial RNA polymerase (Homo sapiens, UniProt O00411); assay: DdRp assay with human mitochondrial RNA polymerase, single turnover; format: biochemical; settings: 100 μM of each NTP
[20] = target: HCV polymerase (Hepatitis C virus genotype 1b, UniProt Q9WMX2); assay: HCV polymerase inhibition assay; format: biochemical
[21] = target: QUAD RNP complex (Human respiratory syncytial virus A, UniProt P28887, A789V/I796V/L795I/M628L); format: biochemical
[22] = target: T1, wild-type RSV L-P RNA polymerase complex (Human respiratory syncytial virus A, UniProt P28887); format: biochemical; settings: Fig 5A
T1 construct: made in house; host or cells: insect cells

[23] = target: RSV RNP complex (Human respiratory syncytial virus A, UniProt P28887); assay: biochemical; format: biochemical
[24] = target: RSV polymerase QUAD mutant (Human respiratory syncytial virus A, UniProt P28887, A789V/I796V/L795I/M628L); assay: Single nucleotide incorporation by recombinant RSV L-P polymerase, QUAD mutant; format: biochemical; settings: recombinant L-P enzymes
[25] = HEp-2, Isolate A1997-12-35, RSV A
[26] = HEp-2, Isolate A1998-03-02, RSV A
[27] = HEp-2, Isolate A1998-12-21, RSV A
[28] = HEp-2, Isolate A2000-03-04, RSV A
[29] = HEp-2, Isolate A2001-02-20, RSV A
[30] = HEp-2, Isolate A2001-03-12, RSV A

## Nc1ccn([C@@H]2O[C@@](CO)(CCl)[C@@H](O)[C@H]2F)c(=O)n1 [ALS-8112, 2'-fluoro-4'-chloromethyl (2'F-4'ClCH2) cytidine]
[1]
  CC50: > 100000 nM
[2]
  EC50: 3400 nM
[3]; A549 cells, Influenza virus row
  CC50: > 100000 nM
[3]; human
  CC50: > 100000 nM
[4]
  CC50: > 100000 nM
[5]; Disease: Asthma, read-out: EC50
  EC50: 730 nM
[5]; Disease: Asthma, read-out: EC90
  EC90: 2700 nM
[5]; donor one, Disease: None, read-out: EC50
  EC50: 370 nM
[5]; donor one, Disease: None, read-out: EC90
  EC90: 2700 nM
[5]; donor two, Disease: None, read-out: EC50
  EC50: 90 nM
[5]; donor two, Disease: None, read-out: EC90
  EC90: 1300 nM
[5]; range over human donor cells (n = 3), read-out: EC50, RSV RNA replication in donor cells
  EC50: 90 to 730 nM
[5]; range over human donor cells (n = 3), read-out: EC90, RSV RNA replication in donor cells
  EC90: 1300 to 2700 nM
[6]
  EC50: > 100000 nM
[7]; Huh-7, HCV replicon, read-out: HCV EC50
  EC50: > 100000 nM
[7]; Huh-7 replicon, read-out: EC50
  EC50: > 100000 nM
[8]; HEp-2, Isolate 1144, RSV B
  EC50: 290 ± 20 nM
  EC90: 1470 ± 220 nM
[8]; HEp-2, Isolate 1262, RSV B
  EC50: 110 ± 30 nM
  EC90: 2180 ± 270 nM
[8]; HEp-2, Isolate 9320, RSV B
  EC50: 90 ± 30 nM
  EC90: 960 ± 160 nM
[8]; HEp-2, Isolate 18537, RSV B
  EC50: 210 ± 60 nM
  EC90: 990 ± 220 nM
[8]; [25]
  EC50: 180 ± 40 nM
  EC90: 2460 ± 150 nM
[8]; [26]
  EC50: 260 ± 60 nM
  EC90: 2150 ± 270 nM
[8]; [27]
  EC50: 90 ± 20 nM
  EC90: 1110 ± 540 nM
[8]; [28]
  EC50: 180 ± 20 nM
  EC90: 2180 ± 240 nM
[8]; [29]
  EC50: 100 ± 10 nM
  EC90: 1100 ± 530 nM
[8]; [30]
  EC50: 450 ± 70 nM
  EC90: 2330 ± 350 nM
[8]; HEp-2, Isolate Pep 121, RSV B
  EC50: 320 ± 70 nM
  EC90: 2070 ± 430 nM
[9]; 120 h, HEp-2 cells, 5 days, qRT-PCR, n = 3, read-out: EC50, inhibition of RNA replication of RSV A2
  EC50: 153 ± 76 nM
[9]; HEp-2, read-out: EC50
  EC50: 150 nM
[10]
  EC50: 150 nM
[11]
  CC50: > 100000 nM
[12]
  EC50: 132 ± 55 nM
[13]
  EC50: 1300 nM
[14]
  EC50: > 100000 nM
[15]
  CC50: > 100000 nM
[16]
  maximum inhibition, QUAD-mutant minigenome: about 60%

## Nc1ccn([C@@H]2O[C@](CCl)(COP(=O)(O)OP(=O)(O)OP(=O)(O)O)[C@@H](O)[C@H]2F)c(=O)n1 [ALS-8112-TP, 2'-Fluoro-4'-Chloromethyl-Cytidine Triphosphate]
[17]
  IC50: 2300 nM
[18]; Influenza virus polymerase, based on a single 100 μM concentration
  IC50: > 100000 nM
[18]; at 100 μM
  inhibition at 100 µM: 20.5%
[19]
  recognition as substrate by human mitochondrial RNA polymerase (in words): not recognized as a substrate
[20]; Fig 5B
  inhibition of HCV polymerase (in words): not HCV polymerase
[20]; Hepatitis C virus polymerase, read-out: IC50
  IC50: > 33000 nM
[20]; second symbol of RSV / HCV, read-out: HCV polymerase inhibition class (IC50)
  IC50: > 10000 nM
[21]
  inhibition of RdRp activity of the QUAD RNP complex: 57%
  loss in inhibition potency compared to the wild-type protein: 145 fold
[22]
  substrate and chain termination profile with recombinant RSV polymerase (in words): both substrates and chain terminators
[23]; Fig 5B
  inhibition of RSV RNP complex (in words): efficiently inhibit RSV
[23]; NTP competition, 1 or 100 μM NTP, 30 μM inhibitor
  mode of inhibition of RSV RNP complex: competitive inhibitor of cytidine monophosphate (CMP) incorporation
[23]; crude RNP complex from virus-infected cells
  viral RNA transcription activity inhibited (in words): inhibited
[24]
  increase in discrimination, QUAD vs WT (resistance level): 4.6 fold
